The record followed here is patent publication US8722663B2, “Di-substituted pyridine derivatives as anticancers” (Otsuka Pharmaceutical Co., Ltd., priority 2010, dated 2014).

The term melting point denotes the temperature of the solid-liquid transition. By IC50 is commonly meant the point on the concentration scale where inhibition reaches its midpoint. Higher therefore signals a need for much substance.

Data set [1] concerns human hepatic cancer cell line (HuH-7). The data set can be described thus: Growth inhibition of HuH-7 cells, sulforhodamine B method. Type of data set: cell-based. As to conditions: Homo sapiens, 120 h, 5 days with test compound. As for the experimental part:
Growth inhibition of a human breast cancer cell line (MDA-MB-468) was determined by the sulforhodamine B method based on the method of Skehan P. et al. (J Natl Cancer Inst. 1990 Jul. 4; 82(13): 1107-12). In the study, MDA-MB-468 cells were seeded on DMEM medium containing 10% fetal bovine serum in a 96-well microplate. After 24-h incubation at 37° C. in the presence of 5% carbon dioxide, the test compound was added and the cells were incubated for another 5 days. After incubation, a trichloroacetic acid solution was added to yield the final concentration of 10% and the cells were left to stand at 4° C. for 1 hour to fix. Then, the cells were washed with water to remove the medium and trichloroacetic acid and dried in the air. The dried cells were stored at 4° C. until they were stained with sulforhodamine B. To each well, 1% acetic acid solution containing 0.4% sulforhodamine B was added and left to stand for 20 to 30 minutes at room temperature. After discarding the supernatant, each well was washed with 1% acetic acid solution, and 10 mM Tris([…]) solution was added while stirring to elute the dye taken into the cells. Then, the optical density was determined at the measurement wavelength of 492 nm and the reference wavelength of 690 nm, and the difference was calculated. The cell growth activity in each well was defined as the value determined by subtracting the OD in the control well not containing cells (the difference in absorbance between 492 nm and 690 nm) from that in the test well.
The 50% inhibitory concentration (IC50 (nM)) of the test compound was determined by comparing the cell growth activity in the well containing the test compound with that of the control not containing the test compound.
The growth inhibition on a human hepatic cancer cell line (HuH-7) was also determined by the above method.

The compound `Cc1cc(/C=C/C(=O)N2CCN(Cc3ccc(Oc4ccc(Cl)cc4)cc3)CC2)cc(C)c1Oc1ccc(OCc2ccc(C#N)cc2)cn1.Cl` [Example 692, 4-{[(6-{4-[(E)-3-{4-[4-(4-Chlorophenoxy)benzyl]piperazin-1-yl}-3-oxoprop-1-en-1-yl]-2,6-dimethylphenoxy}pyridin-3-yl)oxy]methyl}benzonitrile hydrochloride] had a melting point of 231.9 to 233.7 °C. The half-inhibitory concentration (IC50) in data set [1] was < 10 nM.
As to `Cc1cc(/C=C/C(=O)N2CCN(Cc3ccc(CCOc4ccc(F)cc4)cc3)CC2)cc(Cl)c1Oc1ccc(OCc2ccccc2Cl)cn1.Cl` [Example 449, (E)-3-[3-Chloro-4-({5-[(2-chlorobenzyl)oxy]pyridin-2-yl}oxy)-5-methylphenyl]-1-(4-{4-[2-(4-fluorophenoxy)ethyl]benzyl}piperazin-1-yl)prop-2-en-1-one hydrochloride], the melting point was 211.9 to 214 °C. The IC50 in data set [1] was < 10 nM.
Turning to `C/C(C(=O)N1CCN(Cc2ccc(CCOc3ccc(F)cc3)cc2)CC1)=C(/C)c1cc(C)c(Oc2ccc(OCc3ccc(C)cc3)cn2)c(Cl)c1.O=C(O)C(=O)O` [Example 751, (E)-3-[3-Chloro-5-methyl-4-({5-[(4-methylbenzyl)oxy]pyridin-2-yl}oxy)phenyl]-1-(4-{4-[2-(4-fluorophenoxy)ethyl]benzyl}piperazin-1-yl)-2-methylbut-2-en-1-one ethanedioate], the melting point fell in the range of 236.1 to 236.6 °C. Also, the 50% inhibitory concentration (IC50) in data set [1] was < 10 nM.
The compound `Cc1cc(/C=C/C(=O)N2CCN(Cc3ccc(COc4ccc(OC(C)C)cc4)cc3)CC2)cc(C)c1Oc1ccc(OCc2ccc(C#N)cc2)cn1.Cl` [Example 647, 4-({[6-(2,6-Dimethyl-4-{(E)-3-oxo-3-[4-(4-{[4-(propan-2-yloxy)phenoxy]methyl}benzyl)-piperazin-1-yl]prop-1-en-1-yl}phenoxy)pyridin-3-yl]oxy}methyl)benzonitrile hydrochloride] returned a melting point of 216.2 to 219.2 °C. Also, the IC50 in data set [1] is < 10 nM.
As to `COc1cc(/C=C/C(=O)N2CCN(Cc3ccc(CCOc4ccc(C)cc4)cc3)CC2)ccc1Oc1ccc(OCc2ccccc2Cl)cn1.Cl` [Example 482, (E)-3-[4-({5-[(2-Chlorobenzyl)oxy]pyridin-2-yl}oxy)-3-methoxyphenyl]-1-(4-{4-[2-(4-methylphenoxy)ethyl]benzyl}piperazin-1-yl)prop-2-en-1-one hydrochloride], the melting point was 203.4 to 205.7 °C. Also, the concentration for half-maximal inhibition (IC50) in data set [1] was < 10 nM.
Consider `COc1ccc(Oc2ccc3cc(CN4CCN(C(=O)/C=C/c5cc(C)c(Oc6ccc(OCc7ccccc7Cl)cn6)c(Cl)c5)CC4)ccc3n2)cc1.Cl` [Example 675, (E)-3-[3-Chloro-4-({5-[(2-chlorobenzyl)oxy]pyridin-2-yl}oxy)-5-methylphenyl]-1-(4-{[2-(4-methoxyphenoxy)quinolin-6-yl]methyl}piperazin-1-yl)prop-2-en-1-one hydrochloride], for which the melting point lay in the range of 228 to 228.9 °C. For the same compound, the IC50 in data set [1] was < 10 nM.
On the same counts, the results for `Cc1cc(/C=C/C(=O)N2CCN(Cc3ccc(CCOc4ccc(C(C)C)cc4)cc3)CC2)cc(Cl)c1Oc1ccc(OCc2ccc(Cl)nc2)cn1.Cl` [Example 443, (E)-3-[3-Chloro-4-({5-[(6-chloropyridin-3-yl)methoxy]pyridin-2-yl}oxy)-5-methylphenyl]-1-[4-(4-{2-[4-(propan-2-yl)phenoxy]ethyl}benzyl)piperazin-1-yl]prop-2-en-1-one hydrochloride] are 214.8 to 215.3 °C and < 10 nM.
Consider `Cc1cc(/C=C/C(=O)N2CCN(Cc3ccc(CCOc4ccc(C(C)C)cc4)cc3)CC2)cc(Cl)c1Oc1ccc(OCc2cccnc2)cn1.Cl` [Example 445, (E)-3-(3-Chloro-5-methyl-4-{[5-(pyridin-3-ylmethoxy)pyridin-2-yl]oxy}phenyl)-1-[4-(4-{2-[4-(propan-2-yl)phenoxy]ethyl}benzyl)piperazin-1-yl]prop-2-en-1-one hydrochloride], for which the melting point was in the range of 166.4 to 167.7 °C. Besides, the 50% inhibitory concentration (IC50) in data set [1] is < 10 nM.
`COc1cccc(OCCc2ccc(CN3CCN(C(=O)/C=C/c4ccc(Oc5ccc(OCc6ccc(F)cc6)cn5)c(Cl)c4)CC3)cc2)c1.Cl` [Example 757, (E)-3-[3-chloro-4-({5-[(4-fluorobenzyl)oxy]pyridin-2-yl}oxy)phenyl]-1-(4-{4-[2-(3-methoxyphenoxy)ethyl]benzyl}piperazin-1-yl)prop-2-en-1-one hydrochloride] yielded a melting point of 201.5 to 202 °C. The IC50 in data set [1] is < 10 nM.
In the case of `Cc1ccc(CN2CCN(C(=O)/C=C/c3cc(C)c(Oc4ccc(OCc5ccc(C(C)C)cc5)cn4)c(Cl)c3)CC2)cc1` [Example 358, (E)-3-{3-Chloro-5-methyl-4-[(5-{[4-(propan-2-yl)benzyl]oxy}pyridin-2-yl)oxy]phenyl}-1-[4-(4-methylbenzyl)piperazin-1-yl]prop-2-en-1-one], in data set [1], the 50% inhibitory concentration (IC50) is < 10 nM.
`Cc1ccc(OCCc2ccc(CN3CCN(C(=O)/C=C/c4cc(C)c(Oc5ccc(OCc6cncs6)cn5)c(C)c4)CC3)cc2)cc1.Cl` [Example 596, (E)-3-(3,5-Dimethyl-4-{[5-(1,3-thiazol-5-ylmethoxy)pyridin-2-yl]oxy}phenyl)-1-(4-{4-[2-(4-methylphenoxy)ethyl]benzyl}piperazin-1-yl)prop-2-en-1-one hydrochloride]: the melting point is 207 to 207.2 °C. In addition, the IC50 in data set [1] is < 10 nM.
